Measured values: patent US20240199587A1, “HETEROCYCLIC COMPOUNDS” (Hoffmann-La Roche Inc., priority 2021, published 2024)

Target: T1, MAGL (Homo sapiens, UniProt Q99685)
T1 sequence (Q99685 1-303): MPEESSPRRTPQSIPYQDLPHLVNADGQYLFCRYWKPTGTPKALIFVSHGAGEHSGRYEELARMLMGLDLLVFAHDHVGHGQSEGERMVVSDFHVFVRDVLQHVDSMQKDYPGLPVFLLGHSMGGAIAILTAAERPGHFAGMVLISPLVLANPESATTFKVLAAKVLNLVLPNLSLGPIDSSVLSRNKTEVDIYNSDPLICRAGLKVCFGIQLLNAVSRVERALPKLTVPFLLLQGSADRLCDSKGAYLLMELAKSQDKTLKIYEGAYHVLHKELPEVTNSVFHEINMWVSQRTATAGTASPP
Assay: 2-AG assay (MAGL inhibitory activity, hydrolysis of 2-arachidonoylglycerol to arachidonic acid followed by mass spectrometry)
Format: biochemical
Details: 8 μM 2-arachidonoylglycerol, 15 min pre-incubation, 30 min incubation at RT, RapidFire MS readout
Procedure, shortened: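 Human MAGL ([…] final) pre-incubated 15 min at RT with compound in 50 mM TRIS, 1 mM EDTA, 0.01% Tween-20, 2.5% DMSO; 8 μM 2-AG then added for 30 min at RT. Acetonitrile quench with d8-arachidonic acid; arachidonic acid measured by RapidFire SPE–MS/MS, activity from arachidonic acid/d8 ratio.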

First: O=C(N1CC2(CC(Oc3cc(F)ccc3F)C2)C1)N1CC2(CC(n3cnc(C4CC4)n3)C2)C1 [Example 79, (6-(3-cyclopropyl-1H-1,2,4-triazol-1-yl)-2-azaspiro[3.3]heptan-2-yl)(6-(2,5-difluorophenoxy)-2-azaspiro[3.3]heptan-2-yl)methanone]
Second: O=C(N1C[C@H]2C[C@H](Oc3ccc(F)cc3F)C[C@H]2C1)N1CC2(CC(n3cnc(C4CC4)n3)C2)C1 [Example 121, [6-(3-cyclopropyl-1,2,4-triazol-1-yl)-2-azaspiro[3.3]heptan-2-yl]-[rac-(3aS,6aR)-5-(2,4-difluorophenoxy)-3,3a,4,5,6,6a-hexahydro-1H-cyclopenta[c]pyrrol-2-yl]methanone]
The IC50 of the first is 4.2-fold lower: 1.3 nM for the first, 5.4 nM for the second.

First: Cc1cc(C(=O)N2CC3(CC(n4cnc(Cl)n4)C3)C2)cnc1OCC1(C(F)(F)F)CC1 [Example 174, [6-(3-chloro-1,2,4-triazol-1-yl)-2-azaspiro[3.3]heptan-2-yl]-[5-methyl-6-[[1-(trifluoromethyl)cyclopropyl]methoxy]-3-pyridyl]methanone]
Second: O=C(N1CC2(CC(Cc3cnc(C(F)(F)F)nc3)C2)C1)N1CC2(CC(n3cnc(C4(O)CC4)n3)C2)C1 [Example 410, [6-[3-(1-hydroxycyclopropyl)-1,2,4-triazol-1-yl]-2-azaspiro[3.3]heptan-2-yl]-[6-[[2-(trifluoromethyl)pyrimidin-5-yl]methyl]-2-azaspiro[3.3]heptan-2-yl]methanone]
The IC50 of the first is 7.3-fold higher: 183 nM for the first, 24.9 nM for the second. The second is the more potent here.

First: CS(=O)(=O)c1cc(Cl)ccc1-c1ccc(C2CN(C(=O)N3CC4(C3)CN(c3cncc(F)c3)C4)C2)cc1 [Example 350, [3-[4-(4-chloro-2-methylsulfonyl-phenyl)phenyl]azetidin-1-yl]-[6-(5-fluoro-3-pyridyl)-2,6-diazaspiro[3.3]heptan-2-yl]methanone]
Second: NS(=O)(=O)c1ccc(C2CN(C(=O)N3CC4(CC(n5cnc(C6CC6)n5)C4)C3)C2)cc1 [Example 293, 4-[1-[6-(3-cyclopropyl-1,2,4-triazol-1-yl)-2-azaspiro[3.3]heptane-2-carbonyl]azetidin-3-yl]benzenesulfonamide]
The IC50 of the first is 6.1-fold lower: 12.8 nM for the first, 78 nM for the second.

First: CC(C)(C)c1nc(-c2ccc(C(=O)N3CC4(CC(n5nccc5C(F)(F)F)C4)C3)cc2)no1 [Example 16, [4-(5-tert-buty1-1,2,4-oxadiazol-3-yl)phenyl]-[6-[5-(trifluoromethyl)pyrazol-1-yl]-2-azaspiro[3.3]heptan-2-yl]methanone]
Second: CC(C)(C)c1nc(-c2ccc(C(=O)N3CC4(CC(n5ccc(C6CC6)n5)C4)C3)cc2)no1 [Example 171, [4-(5-tert-butyl-1,2,4-oxadiazol-3-yl)phenyl]-[6-(3-cyclopropylpyrazol-1-yl)-2-azaspiro[3.3]heptan-2-yl]methanone]
The IC50 of the first is 29-fold higher: 2810 nM for the first, 96.4 nM for the second.

First: O=C(N1CC(c2ccc(C3(c4nnn[nH]4)CC3)cc2)C1)N1CC2(CC(n3cnc(C4CC4)n3)C2)C1 [Example 252, [6-(3-cyclopropyl-1,2,4-triazol-1-yl)-2-azaspiro[3.3]heptan-2-yl]-[3-[4-[1-(1H-tetrazol-5-yl)cyclopropyl]phenyl]azetidin-1-yl]methanone]
Second: O=C(N1CC(c2ccc(CC(F)(F)F)cc2)C1)N1CC2(CC(n3cnc(C4CC4)n3)C2)C1 [Example 37, [6-(3-cyclopropyl-1,2,4-triazol-1-yl)-2-azaspiro[3.3]heptan-2-yl]-[3-[4-(2,2,2-trifluoroethyl)phenyl]azetidin-1-yl]methanone]
The IC50 of the first is 1.5-fold lower: 16.1 nM for the first, 24.5 nM for the second.

Compared with `O=C(N1CC(C23CC(c4nnc(C5(C(F)(F)F)CC5)[nH]4)(C2)C3)C1)N1CC2(CC(n3cnc(C4CC4)n3)C2)C1` [Example 419, [6-(3-cyclopropyl-1,2,4-triazol-1-yl)-2-azaspiro[3.3]heptan-2-yl]-[3-[3-[5-[1-(trifluoromethyl)cyclopropyl]-4H-1,2,4-triazol-3-yl]-1-bicyclo[1.1.1]pentanyl]azetidin-1-yl]methanone], `O=C(N1CC2(CC(n3cnc(C4CC4)n3)C2)C1)N1CC2(CN(Cc3ccc(C(F)(F)F)nn3)C2)C1` [Example 472, [6-(3-cyclopropyl-1,2,4-triazol-1-yl)-2-azaspiro[3.3]heptan-2-yl]-[6-[[6-(trifluoromethyl)pyridazin-3-yl]methyl]-2,6-diazaspiro[3.3]heptan-2-yl]methanone] is 18-fold higher in IC50: 2.48 nM for the first, 45.3 nM for the second. The first is the more potent here.

First: O=C(N1CC(Oc2nccc(C(F)(F)F)n2)C1)N1CC2(CC(n3cnc(C4CC4)n3)C2)C1 [Example 316, [6-(3-cyclopropyl-1,2,4-triazol-1-yl)-2-azaspiro[3.3]heptan-2-yl]-[3-[4-(trifluoromethyl)pyrimidin-2-yl]oxyazetidin-1-yl]methanone]
Second: N#Cc1cc(C2CC2)ccc1OC1CN(C(=O)N2CC3(CC(n4cnc(C5CC5)n4)C3)C2)C1 [Example 188, 5-cyclopropyl-2-[1-[6-(3-cyclopropyl-1,2,4-triazol-1-yl)-2-azaspiro[3.3]heptane-2-carbonyl]azetidin-3-yl]oxy-benzonitrile]
The IC50 of the first is 1200-fold higher: 248 nM for the first, 0.2 nM for the second. The second is the more potent here.

Compared with `CC(C)(C)CS(=O)(=O)N1CC2(CN(C(=O)N3CC4(CC(n5cnc(C6CC6)n5)C4)C3)C2)C1` [Example 239], `O=C(N1CC2(CC(n3cnc(C4CC4)n3)C2)C1)N1CC2(C1)CN(S(=O)(=O)N1CCCC1)C2` [Example 284, [6-(3-cyclopropyl-1,2,4-triazol-1-yl)-2-azaspiro[3.3]heptan-2-yl]-(2-pyrrolidin-1-ylsulfonyl-2,6-diazaspiro[3.3]heptan-6-yl)methanone] is 7.6-fold higher in IC50: 6.6 nM for the first, 49.9 nM for the second.

Going from `O=C(N1CC2(CC(n3cnc(C4CC4)n3)C2)C1)N1CC2(C1)CN(S(=O)(=O)c1ccc(C(F)(F)F)cc1)C2` [Example 225, [6-(3-cyclopropyl-1,2,4-triazol-1-yl)-2-azaspiro[3.3]heptan-2-yl]-[2-[4-(trifluoromethyl)phenyl]sulfonyl-2,6-diazaspiro[3.3]heptan-6-yl]methanone] to `O=C(N1CC2(CC(n3cnc(C4CC4)n3)C2)C1)N1CC2(C1)CN(S(=O)(=O)c1cncc(C(F)(F)F)c1)C2` [Example 268, [6-(3-cyclopropyl-1,2,4-triazol-1-yl)-2-azaspiro[3.3]heptan-2-yl]-[2-[[5-(trifluoromethyl)-3-pyridyl]sulfonyl]-2,6-diazaspiro[3.3]heptan-6-yl]methanone], the IC50 rises from 3.3 nM to 32.1 nM (9.7-fold). The first is the more potent here.

First: CS(=O)(=O)c1ccc(CC2CC3(C2)CN(C(=O)N2CC4(CC(n5cnc(C(F)(F)F)n5)C4)C2)C3)nc1 [Example 458, [6-[(5-methylsulfonyl-2-pyridyl)methyl]-2-azaspiro[3.3]heptan-2-yl]-[6-[3-(trifluoromethyl)-1,2,4-triazol-1-yl]-2-azaspiro[3.3]heptan-2-yl]methanone]
Second: CS(=O)(=O)c1ccc(CC2CC3(C2)CN(C(=O)N2CC4(CC(n5cnc(C(F)(F)F)n5)C4)C2)C3)c(F)c1 [Example 459, [6-[(2-fluoro-4-methylsulfonyl-phenyl)methyl]-2-azaspiro[3.3]heptan-2-yl]-[6-[3-(trifluoromethyl)-1,2,4-triazol-1-yl]-2-azaspiro[3.3]heptan-2-yl]methanone]
The IC50 of the first is 65-fold higher: 19.4 nM for the first, 0.3 nM for the second. The second is the more potent here.

Going from `O=C(N1CC(OCc2ccc(C(F)(F)F)c(F)c2)C1)N1CC2(CC(n3cnc(C4CC4)c3)C2)C1` [Example 103, [6-(4-cyclopropylimidazol-1-yl)-2-azaspiro[3.3]heptan-2-yl]-[3-[[3-fluoro-4-(trifluoromethyl)phenyl]methoxy]azetidin-1-yl]methanone] to `CS(=N)(=O)c1ccc(CC2CC3(C2)CN(C(=O)N2CC4(CC(n5cnc(C6CC6)n5)C4)C2)C3)cc1` (single isomer, unassigned) [Example 443, [6-(3-cyclopropyl-1,2,4-triazol-1-yl)-2-azaspiro[3.3]heptan-2-yl]-[6-[[4-(methylsulfonimidoyl)phenyl]methyl]-2-azaspiro[3.3]heptan-2-yl]methanone], the IC50 falls from 9.9 nM to 4.31 nM (2.3-fold).

First: CC(C)(C)c1nc(C23CC(C(=O)N4CC5(CC(n6cnc(C7CC7)c6)C5)C4)(C2)C3)no1 [Example 162, [3-(5-tert-butyl-1,2,4-oxadiazol-3-yl)-1-bicyclo[1.1.1]pentanyl]-[6-(4-cyclopropylimidazol-1-yl)-2-azaspiro[3.3]heptan-2-yl]methanone]
Second: N#Cc1cc(CC2CC3(C2)CN(C(=O)N2CC4(CC(n5cnc(C6(O)CC6)n5)C4)C2)C3)cc(C(F)(F)F)c1 [Example 370, 3-[[2-[6-[3-(1-hydroxycyclopropyl)-1,2,4-triazol-1-yl]-2-azaspiro[3.3]heptane-2-carbonyl]-2-azaspiro[3.3]heptan-6-yl]methyl]-5-(trifluoromethyl) benzonitrile]
The IC50 of the first is 530-fold higher: 475 nM for the first, 0.9 nM for the second.

Compared with `CS(=O)(=O)c1ccc(CC2CC3(C2)CN(C(=O)N2CC4(CC(n5cnc(C6(O)CC6)n5)C4)C2)C3)c(F)c1` [Example 403, [6-[(2-fluoro-4-methylsulfonyl-phenyl)methyl]-2-azaspiro[3.3]heptan-2-yl]-[6-[3-(1-hydroxycyclopropyl)-1,2,4-triazol-1-yl]-2-azaspiro[3.3]heptan-2-yl]methanone], `O=C(N1CC2(CC(Cc3ccc(F)cc3F)C2)C1)N1CC2(CC(c3cncc(F)c3)C2)C1` [Example 380, [6-[(2,4-difluorophenyl)methyl]-2-azaspiro[3.3]heptan-2-yl]-[6-(5-fluoro-3-pyridyl)-2-azaspiro[3.3]heptan-2-yl]methanone] is 2.2-fold lower in IC50: 1.25 nM for the first, 0.57 nM for the second. The second is the more potent here.
